Experimental data as given in PubChem BioAssay AID1996.
In brackets after ≈: the same amount, converted by molar mass.

settings: buffer; pH 7.4; 200.0 µM

Structure (SMILES)	solubility kinetic [µg/mL]
COCCn1c(=O)[nH]c2cc(C(=O)Nc3cccc(F)c3)ccc2c1=O	6.2 (≈ 17.4 µM)
CC(C)(C)OC(=O)N1CCC[C@H]1C(=O)Nc1ccc(C#N)cc1	40.7 (≈ 129 µM)
Cc1nnc(SCC(=O)NCC(=O)Nc2ccc(F)c(F)c2F)n1N	> 56.2
COc1ccc2nc(C)cc(SCC(=O)N3CCCCC3)c2c1	> 49.6
Cc1ccccc1NC(=O)COC(=O)c1cc[n+]([O-])cc1	> 42.9
COCCCNc1nc(-c2ccc(Cl)cc2)nc2ccccc12	4.3 (≈ 13.1 µM)
NS(=O)(=O)c1ccc(CCNC(=O)CN2CCCCCC2)cc1	> 50.9
O=C(CNC(=O)[C@@H]1Cc2ccccc2CN1)NCc1ccco1	> 47
CC(C)CC(NC(N)=O)C(=O)NCCc1ccc(Cl)cc1 (stereo not given)	> 46.8
CC1CN(C(=O)COC(=O)c2ccc(F)cc2Cl)CC(C)O1 (stereo not given)	43.1 (≈ 131 µM)
COc1cccc2[nH]c3ccccc3c(=O)c12	> 33.8
CN(C)CCOC1c2ccccc2CCc2ccc3ccccc3c21.O=C(O)C(=O)O (stereo not given)	> 63.2
COc1ccccc1CC(=O)N1CCN(c2cccc(Cl)c2)CC1	22 (≈ 63.8 µM)
CCOc1ccccc1C(=O)Nc1ccc2c(c1)C(=O)NC2=O	< 0.3
CCCc1cc(C(=O)Nc2ccc(Cl)cn2)cs1	0.7 (≈ 2.49 µM)
COc1ccc(NS(=O)(=O)c2cc(N)ccc2N2CCCC2)cc1	47.6 (≈ 137 µM)
CC(=O)c1ccc2noc(-c3ccc(C)cc3)c2c1	26.2 (≈ 104 µM)
CC1CCCCC1NC1=NCCCS1 (stereo not given)	> 31.9
Cc1cc(NC(=O)NCC(F)(F)F)no1	> 33.5
CN1C(=S)SC(C)(C)C1N(O)C(=O)Nc1ccc(Cl)cc1 (stereo not given)	4.2 (≈ 12.1 µM)

Structure (SMILES)	solubility kinetic [µg/mL]
CC(C(=O)c1c[nH]c2ccccc12)N1CCOCC1 (stereo not given)	> 38.7
CCOCC(=O)N1CCN(Cc2ccc3c(c2)OCO3)CC1	> 46
Cn1c(N)c(C(=O)COC(=O)Cc2ccccc2F)c(=O)n(C)c1=O	24.2 (≈ 69.3 µM)
CN(Cc1ccccc1)C(=O)COc1ccccc1Cl	40 (≈ 138 µM)
Cc1ccccc1CNS(=O)(=O)c1csc(C(N)=O)c1	> 46.6
Cc1[nH]c(=O)[nH]c(=O)c1S(=O)(=O)Nc1cccc(C(F)(F)F)c1	> 52.4
CSc1nc(C)c(C(=O)C[n+]2ccc(C)cc2)cc1C#N.[Br-]	50
N#Cc1ccccc1OCC(=O)NNC(=O)c1ccncc1	> 44.4
COc1ccc(S(=O)(=O)Nc2ccc(Cl)cn2)cc1	14.4 (≈ 48.2 µM)
COc1ccc2c(c1)C(=O)C(=O)N2CC1COc2ccccc2O1 (stereo not given)	1.7 (≈ 5.23 µM)
COc1ccc(C2(CNC(=O)c3ccccc3)CCOCC2)cc1	> 48.8
Cc1ccc2nc(SCC(=O)NC3CCS(=O)(=O)C3)[nH]c2c1 (stereo not given)	48.3 (≈ 142 µM)
COc1ccc(OCC(O)CNC(=O)Nc2cc(C)cc(C)c2)cc1 (stereo not given)	3.8 (≈ 11 µM)
NC(=O)C1CCCN1S(=O)(=O)c1ccc2ccccc2c1 (stereo not given)	> 45.7
CC1(c2ccc(OC(F)F)cc2)NC(=O)N(CC(=O)NC2CCCC2)C1=O (stereo not given)	> 57.2
O=C(Cn1cc(C(F)(F)F)ccc1=O)N1CCCc2ccccc21	> 50.4
COc1cc(Nc2ncnc(N)n2)cc(OC)c1	> 37.1
O=c1cc(-c2ccc(Cl)cc2)oc(=O)[nH]1	> 33.5
COc1ccc(N2C(=O)NC(NC(=O)C(C)(C)C)(C(F)(F)F)C2=O)cc1 (stereo not given)	> 56
O=c1cc(CSc2ccccc2)[nH]c2ccccc12	39.7 (≈ 148 µM)

Structure (SMILES)	solubility kinetic [µg/mL]
O=C(Nc1ccccc1F)NC1CCCCCCC1	6.9 (≈ 26.1 µM)
O=C(Nc1ccc(F)cc1)c1cc2c(s1)CCCC2	< 0.6
COc1ccc(OCC(N)=O)cc1	> 27.2
c1ccc(CCc2ccncc2)cc1	13 (≈ 70.9 µM)
Cc1ccc(-c2csc3nc(C(C)C)oc(=O)c23)c(C)c1	3.9 (≈ 13 µM)
Cc1nc(NC(=O)c2ccccc2)sc1C	29.6 (≈ 127 µM)
COC(=O)c1ccc(OC(=O)CN2C(=O)c3ccccc3C2=O)cc1	50.6 (≈ 149 µM)
Cc1ccccc1CC(=O)Nc1ccc2c(C)cc(=O)oc2c1	2.1 (≈ 6.83 µM)
NC(=O)CSc1nccn1Cc1ccc(Cl)cc1	> 42.3
COC(=O)/C=C/c1cnc2ccccc2c1	> 32
O=C(NCc1ccco1)/C(=C\c1ccccc1)NC(=O)c1ccccc1	17.2 (≈ 49.7 µM)
CC(C)CCOc1ccc(C2CC(=O)N(C)C2=O)cc1 (stereo not given)	40.3 (≈ 146 µM)
CCc1cc(=O)[nH]c(SCC(=O)Nc2cc(C)on2)n1	> 44.1
CC(Sc1nnc(NC2CC2)s1)C(=O)Nc1ccc(S(N)(=O)=O)cc1 (stereo not given)	> 59.9
CCOC(=O)C1(Cc2ccccc2)CCCN(C2CCCC2)C1 (stereo not given)	> 47.3
Cc1ccc(N2C(=O)C(Cl)=C(N3CCCCCC3)C2=O)c(C)c1	4.5 (≈ 13.5 µM)
CN(C)Cc1c(O)ccc2c1O/C(=C\C=C\c1ccccc1)C2=O	46.8 (≈ 146 µM)
CCOc1ccccc1NC(=O)NC(C)c1ccc2c(c1)OCO2 (stereo not given)	3.4 (≈ 10.4 µM)
Cc1ccc(C2(c3noc(CN(C)CCO)n3)CCCC2)cc1	39.5 (≈ 125 µM)
N#CCCN1C(=O)C2(OCCO2)c2ccccc21	> 36.6
